Experimental data from US8088806B2 (Achillion Pharmaceuticals, Inc., priority 2005, dated 2012).

System: HCV replicon
Assay: Replicon based assay of HCV replication inhibition (NPT ELISA)
Format: cell-based, Hepatitis C virus
Conditions: Hepatitis C virus, replicon based assay of HCV replication inhibition; Table IV; read-out: Activity
In short: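 Huh-7 cells carrying a bicistronic HCV replicon (neo, EMCV-IRES-driven NS3–NS5B) treated overnight after seeding with usually 6 concentrations, 10 to 0.03 micromolar, for three days at 37° C without G418. Replication read as NPT level by captured ELISA; matched-DMSO wells and interferon alpha as controls.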

Question: How did the EC50 turn out when `Cc1c(C)c(C)c(C(=O)CCc2cccc(Nc3nc(-c4cccnc4)cs3)c2)c(C)c1C` [compound 898, 3-(3-(4-(pyridin-3-yl)thiazol-2-ylamino)phenyl)-1-(2,3,4,5,6-pentamethylphenyl)propan-1-one] was run?
Answer: < 1000 nM

Question: Which EC50 does the source give for `Cc1c(Nc2nc(-c3cccnc3)cs2)cccc1C(F)(F)F` [compound 899, N-(3-(trifluoromethyl)-2-methylphenyl)-4-(pyridin-3-yl)thiazol-2-amine] here?
Answer: 1000 to 10000 nM

Question: `CCCCc1ccc(Nc2nc(-c3cccnc3)cs2)c(C)c1` [compound 900, N-(4-butyl-2-methylphenyl)-4-(pyridin-3-yl)thiazol-2-amine] was tested. Which EC50 did it give?
Answer: < 1000 nM

Question: Which EC50 does the source give for `COc1cc(Nc2nc(-c3cccnc3)cs2)cc(OC)c1` [compound 901, N-(3,5-dimethoxyphenyl)-4-(pyridin-3-yl)thiazol-2-amine] here?
Answer: 1000 to 10000 nM

Question: `CCC(C)(C)c1ccc(Oc2ccccc2)c(Nc2nc(-c3cccnc3)cs2)c1` [compound 902, N-(5-tert-pentyl-2-phenoxyphenyl)-4-(pyridin-3-yl)thiazol-2-amine] was tested. Which EC50 did it give?
Answer: < 1000 nM

Question: For `COc1cc(-c2ccccc2)c(C)cc1Nc1nc(-c2cccnc2)cs1` [compound 903], which EC50 is on record?
Answer: < 1000 nM

Question: Which EC50 does the source give for `O=C(O)c1ccc(Oc2ccc(Nc3nc(-c4cccnc4)cs3)cc2)cc1` [compound 904, 4-(4-(4-(pyridin-3-yl)thiazol-2-ylamino)phenoxy)benzoic acid] here?
Answer: < 1000 nM

Question: How did the EC50 turn out when `Cc1ccc(-c2ccccc2)cc1Nc1nc(-c2cccnc2)cs1` [compound 905] was run?
Answer: > 10000 nM

Question: `Cc1cc(C)cc(Nc2nc(-c3cccnc3)cs2)c1` [compound 906, N-(3,5-dimethylphenyl)-4-(pyridin-3-yl)thiazol-2-amine] was tested. Which EC50 did it give?
Answer: 1000 to 10000 nM

Question: For `CCOC(=O)/C=C/c1ccc(Nc2nc(-c3cccnc3)cs2)cc1` [compound 907, (E)-ethyl 3-(4-(4-(pyridin-3-yl)thiazol-2-ylamino)phenyl)acrylate], which EC50 is on record?
Answer: > 10000 nM

Question: How did the EC50 turn out when `FC(F)(F)c1cccc(Nc2nc(-c3cccnc3)cs2)c1` [compound 908, N-(3-(trifluoromethyl)phenyl)-4-(pyridin-3-yl)thiazol-2-amine] was run?
Answer: < 1000 nM

Question: How did the EC50 turn out when `O=C(O)Cc1ccc(Nc2nc(-c3cccnc3)cs2)cc1` [compound 909, 2-(4-(4-(pyridin-3-yl)thiazol-2-ylamino)phenyl)acetic acid] was run?
Answer: > 10000 nM

Question: Which EC50 does the source give for `Cc1noc(NS(=O)(=O)c2ccc(Nc3nc(-c4cccnc4)cs3)cc2)c1C` [compound 910] here?
Answer: > 10000 nM

Question: For `O=S(=O)(Nc1ccccn1)c1ccc(Nc2nc(-c3cccnc3)cs2)cc1` [compound 911], which EC50 is on record?
Answer: > 10000 nM

Question: For `Fc1cc(Nc2nc(-c3cccnc3)cs2)ccc1OCCCCc1ccccc1` [compound 912, N-(4-(4-phenylbutoxy)-3-fluorophenyl)-4-(pyridin-3-yl)thiazol-2-amine], which EC50 is on record?
Answer: < 1000 nM

Question: `CCCCCCCCOc1ccc(Nc2nc(-c3cccnc3)c(C#N)s2)cc1C(F)(F)F` [compound 913, 2-(3-(trifluoromethyl)-4-(octyloxy)phenylamino)-4-(pyridin-3-yl)thiazole-5-carbonitrile] was tested. Which EC50 did it give?
Answer: 1000 to 10000 nM

Question: How did the EC50 turn out when `CCCCCCCCOc1ccc(Nc2nc(-c3cccnc3)c(F)s2)cc1C(F)(F)F` [compound 914, 5-fluoro-N-(3-(trifluoromethyl)-4-(octyloxy)phenyl)-4-(pyridin-3-yl)thiazol-2-amine] was run?
Answer: < 1000 nM

Question: For `CCCCCCCCOc1ccc(Nc2nc(-c3csc(C)n3)cs2)cc1C(F)(F)F` [compound 915, N-(3-(trifluoromethyl)-4-(octyloxy)phenyl)-4-(2-methylthiazol-4-yl)thiazol-2-amine], which EC50 is on record?
Answer: < 1000 nM

Question: With `CCCCCCCCOc1ccc(Nc2nc(-c3csc(N)n3)cs2)cc1C(F)(F)F` [compound 916, 4-(2-(3-(trifluoromethyl)-4-(octyloxy)phenylamino)thiazol-4-yl)thiazol-2-amine] as the compound, how does the EC50 read?
Answer: < 1000 nM

Question: For `CCCCCCCCOc1ccc(Nc2nc(C(=O)CSc3ccccn3)cs2)cc1C(F)(F)F` [compound 917, 1-(2-(3-(trifluoromethyl)-4-(octyloxy)phenylamino)thiazol-4-yl)-2-(pyridin-2-ylthio)ethanone], which EC50 is on record?
Answer: 1000 to 10000 nM

Question: How did the EC50 turn out when `CCCCCCCCOc1ccc(Nc2nc(-c3cccnc3)c(Cl)s2)cc1C(F)(F)F` [compound 918, 5-chloro-N-(3-(trifluoromethyl)-4-(octyloxy)phenyl)-4-(pyridin-3-yl)thiazol-2-amine] was run?
Answer: < 1000 nM

Question: For `COc1ncc(-c2csc(Nc3ccc4c(ccn4Cc4ccc(F)cc4)c3)n2)cn1` [compound 919, 1-(4-fluorobenzyl)-N-(4-(2-methoxypyrimidin-5-yl)thiazol-2-yl)-1H-indol-5-amine], which EC50 is on record?
Answer: 1000 to 10000 nM

Question: With `c1ccc(CCCOc2ccc(Nc3nc(-c4cccnc4)cs3)cc2)cc1` [compound 920, N-(4-(3-phenylpropoxy)phenyl)-4-(pyridin-3-yl)thiazol-2-amine] as the compound, how does the EC50 read?
Answer: < 1000 nM

Question: For `c1ccc(CCCCOc2ccc(Nc3nc(-c4cccnc4)cs3)cc2)cc1` [compound 921, N-(4-(4-phenylbutoxy)phenyl)-4-(pyridin-3-yl)thiazol-2-amine], which EC50 is on record?
Answer: < 1000 nM

Question: How did the EC50 turn out when `c1cncc(-c2csc(Nc3ccc(OCCCCc4cccs4)cc3)n2)c1` [compound 922, N-(4-(4-(thiophen-2-yl)butoxy)phenyl)-4-(pyridin-3-yl)thiazol-2-amine] was run?
Answer: < 1000 nM

Question: Which EC50 does the source give for `CCCCCCCCOc1ccc(Nc2nc(-c3cccnc3)c(N)s2)cc1C(F)(F)F` [compound 923, N^2-(3-(trifluoromethyl)-4-(octyloxy)phenyl)-4-(pyridin-3-yl)thiazole-2,5-diamine] here?
Answer: < 1000 nM

Question: For `FC(F)(F)c1cc(Nc2nc(-c3cccnc3)cs2)ccc1OCCCOc1ccccc1` [compound 924, N-(4-(3-phenoxypropoxy)-3-(trifluoromethyl)phenyl)-4-(pyridin-3-yl)thiazol-2-amine], which EC50 is on record?
Answer: < 1000 nM

Question: For `O=C(O)Cc1ccc(-c2csc(Nc3ccc(OCCCCc4cccs4)c(C(F)(F)F)c3)n2)s1` [compound 925, 2-(5-(2-(4-(4-(thiophen-2-yl)butoxy)-3-(trifluoromethyl)phenylamino)thiazol-4-yl)thiophen-2-yl) acetic acid], which EC50 is on record?
Answer: < 1000 nM

Question: How did the EC50 turn out when `CCOC(=O)Cc1ccc(-c2csc(Nc3ccc(OCCCCc4cccs4)c(C(F)(F)F)c3)n2)s1` [compound 926, ethyl 2-(5-(2-(4-(4-(thiophen-2-yl)butoxy)-3-(trifluoromethyl)phenylamino)thiazol-4-yl)thiophen-2-yl)acetate] was run?
Answer: 1000 to 10000 nM

Question: With `O=C(O)Cc1ccc(-c2csc(Nc3ccc(OCCCCc4ccccc4)c(C(F)(F)F)c3)n2)s1` [compound 927, 2-(5-(2-(4-(4-phenylbutoxy)-3-(trifluoromethyl)phenylamino)thiazol-4-yl)thiophen-2-yl)acetic acid] as the compound, how does the EC50 read?
Answer: < 1000 nM

Question: Which EC50 does the source give for `CCOC(=O)Cc1ccc(-c2csc(Nc3ccc(OCCCCc4ccccc4)c(C(F)(F)F)c3)n2)s1` [compound 928, ethyl 2-(5-(2-(4-(4-phenylbutoxy)-3-(trifluoromethyl)phenylamino)thiazol-4-yl)thiophen-2-yl)acetate] here?
Answer: 1000 to 10000 nM

Question: `O=C(O)Cc1ccc(-c2csc(Nc3ccc(OCCCCc4ccccc4)c(F)c3)n2)s1` [compound 929, 2-(5-(2-(4-(4-phenylbutoxy)-3-fluorophenylamino)thiazol-4-yl)thiophen-2-yl)acetic acid] was tested. Which EC50 did it give?
Answer: < 1000 nM

Question: For `CCOC(=O)Cc1ccc(-c2csc(Nc3ccc(OCCCCc4ccccc4)c(F)c3)n2)s1` [compound 930, ethyl 2-(5-(2-(4-(4-phenylbutoxy)-3-fluorophenylamino)thiazol-4-yl)thiophen-2-yl)acetate], which EC50 is on record?
Answer: 1000 to 10000 nM

Question: Which EC50 does the source give for `CCOC(=O)Cc1ccc(-c2csc(Nc3ccc(OCCCOc4ccccc4)cc3)n2)s1` [compound 931, ethyl 2-(5-(2-(4-(3-phenoxypropoxy)phenylamino)thiazol-4-yl)thiophen-2-yl)acetate] here?
Answer: 1000 to 10000 nM

Question: With `CCOC(=O)Cc1ccc(-c2csc(Nc3ccc(OCCN(CC)c4ccccc4)c(C(F)(F)F)c3)n2)s1` [compound 932] as the compound, how does the EC50 read?
Answer: 1000 to 10000 nM

Question: How did the EC50 turn out when `CCOC(=O)Cc1ccc(-c2csc(Nc3ccc(OCCOc4ccccc4)c(C(F)(F)F)c3)n2)s1` [compound 933, ethyl 2-(5-(2-(4-(2-phenoxyethoxy)-3-(trifluoromethyl)phenylamino)thiazol-4-yl)thiophen-2-yl)acetate] was run?
Answer: 1000 to 10000 nM

Question: `CCOC(=O)Cc1ccc(-c2csc(Nc3ccc(OCCSc4ccccc4)c(C(F)(F)F)c3)n2)s1` [compound 934, ethyl 2-(5-(2-(4-(2-(phenylthio)ethoxy)-3-(trifluoromethyl)phenylamino)thiazol-4-yl)thiophen-2-yl)acetate] was tested. Which EC50 did it give?
Answer: 1000 to 10000 nM

Question: `Cc1cccc(CCCCOc2ccc(Nc3nc(-c4cccnc4)cs3)cc2C(F)(F)F)c1` [compound 935, N-(4-(4-m-tolylbutoxy)-3-(trifluoromethyl)phenyl)-4-(pyridin-3-yl)thiazol-2-amine] was tested. Which EC50 did it give?
Answer: < 1000 nM

Question: For `Cc1cc(Nc2nc(-c3cccnc3)cs2)ccc1OCCCCc1ccccc1` [compound 936, N-(4-(4-phenylbutoxy)-3-methylphenyl)-4-(pyridin-3-yl)thiazol-2-amine], which EC50 is on record?
Answer: < 1000 nM

Question: How did the EC50 turn out when `C#CCCOc1ccc(Nc2nc(-c3cccnc3)cs2)cc1C(F)(F)F` [compound 937, N-(4-(but-3-ynyloxy)-3-(trifluoromethyl)phenyl)-4-(pyridin-3-yl)thiazol-2-amine] was run?
Answer: < 1000 nM

Question: How did the EC50 turn out when `FC(F)(F)c1cc(Nc2nc(-c3cccnc3)cs2)ccc1CCCCCc1ccccc1` [compound 938, N-(3-(trifluoromethyl)-4-(5-phenylpentyl)phenyl)-4-(pyridin-3-yl)thiazol-2-amine] was run?
Answer: < 1000 nM

Question: Which EC50 does the source give for `COc1ncc(-c2csc(Nc3ccc(CCCCCc4ccccc4)c(C(F)(F)F)c3)n2)cn1` [compound 939, N-(3-(trifluoromethyl)-4-(5-phenylpentyl)phenyl)-4-(2-methoxypyrimidin-5-yl)thiazol-2-amine] here?
Answer: < 1000 nM

Question: With `FC(F)(F)c1cc(Nc2nc(-c3cnccn3)cs2)ccc1OCCCCc1ccccc1` [compound 940, N-(4-(4-phenylbutoxy)-3-(trifluoromethyl)phenyl)-4-(pyrazin-2-yl)thiazol-2-amine] as the compound, how does the EC50 read?
Answer: < 1000 nM

Question: For `FC(F)(F)c1cc(Nc2nc(-c3cnccn3)cs2)ccc1OCCCCc1cccs1` [compound 941, N-(4-(4-(thiophen-2-yl)butoxy)-3-(trifluoromethyl)phenyl)-4-(pyrazin-2-yl)thiazol-2-amine], which EC50 is on record?
Answer: < 1000 nM
